Source: doi:10.1101/2024.12.09.627564, “Cannabinoid inhibition of mechanosensitive K^+ channels” (bioRxiv, 2024)
Where a chain is given by its changes, count along the chain named.

Experiments:
[1] = test system: voltage-gated sodium channels; settings: cited from earlier work
[2] = biological target: T1, TRAAKP259L (Homo sapiens, UniProt Q9NYG8, P233L); assay: Excised patch recording of TRAAK mutant P259L; type: biochemical
T1 construct: The transcribed messages encode H. sapiens TRAAK amino acids 1–393; expressed in transfected cells; host or cells: Xenopus laevis oocytes, cRNA injection
T1 sequence (Q9NYG8 1-393 P233L): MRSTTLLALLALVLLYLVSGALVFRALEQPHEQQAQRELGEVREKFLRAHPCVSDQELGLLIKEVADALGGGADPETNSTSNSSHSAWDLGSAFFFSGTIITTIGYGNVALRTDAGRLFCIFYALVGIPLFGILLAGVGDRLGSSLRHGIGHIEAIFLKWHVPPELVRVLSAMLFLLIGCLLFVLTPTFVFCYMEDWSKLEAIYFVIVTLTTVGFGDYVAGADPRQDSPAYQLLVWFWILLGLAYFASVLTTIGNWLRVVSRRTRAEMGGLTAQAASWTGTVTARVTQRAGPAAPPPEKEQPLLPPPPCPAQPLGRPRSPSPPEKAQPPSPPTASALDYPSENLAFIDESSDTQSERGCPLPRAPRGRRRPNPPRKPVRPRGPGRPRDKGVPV
Excerpt: For patch clamp recording from Xenopus oocytes, genes encoding full-length Homo sapiens TRAAK (UniProt Q9NYG8–2), TREK-1 (UniProt O95069), and TREK-2 (UniProt P57789) were codon optimized for eukaryotic expression, synthesized (Genewiz), and cloned into a modified pGEMHE vector using Xho1 and EcoR1 restriction sites. The transcribed messages encode H. sapiens TRAAK amino acids 1–393, TREK-1 amino acids 1–426, or TREK-2 amino acids 1–538 with an additional three amino acids (SNS) at the C terminus. TRAAK mutants were introduced by polymerase chain reaction (PCR). Linearized DNA was transcribed in vitro using T7 polymerase. […] Currents were recorded at 25 °C from inside-out patches excised from oocytes 1 to 5 d after RNA injection. […]
Patches were evaluated with voltage-step protocols to confirm TRAAK expression and minimal non-specific leak based on reversal potential. Currents were recorded using an Axopatch 200B amplifier (Molecular Devices) at a bandwidth of 1 kHz and digitized with an Digidata 1550B (Molecular Devices) at 100–500 kHz using pClamp10.7 software. […] In an effort to minimize variability associated with differences in resting membrane tension, we targeted patches with low basal curvature and low resting channel activity and ensured measured pressure difference across the patch was as close to zero as possible at rest to prevent mechanical activation of channels. […]

[3] = biological target: T2, TRAAKG158D (Homo sapiens, UniProt Q9NYG8, G132D); assay: Excised patch recording of TRAAK mutant G158D; type: biochemical
T2 construct: The transcribed messages encode H. sapiens TRAAK amino acids 1–393; expressed in transfected cells; host or cells: Xenopus laevis oocytes, cRNA injection
T2 sequence (Q9NYG8 1-393 G132D): T1 sequence (Q9NYG8 1-393 P233L) with G132D, L233P
Excerpt: For patch clamp recording from Xenopus oocytes, genes encoding full-length Homo sapiens TRAAK (UniProt Q9NYG8–2), TREK-1 (UniProt O95069), and TREK-2 (UniProt P57789) were codon optimized for eukaryotic expression, synthesized (Genewiz), and cloned into a modified pGEMHE vector using Xho1 and EcoR1 restriction sites. The transcribed messages encode H. sapiens TRAAK amino acids 1–393, TREK-1 amino acids 1–426, or TREK-2 amino acids 1–538 with an additional three amino acids (SNS) at the C terminus. TRAAK mutants were introduced by polymerase chain reaction (PCR). Linearized DNA was transcribed in vitro using T7 polymerase. Complementary RNA (0.1 to 10 ng for TRAAK, TREK-1, TREK-2, and mutants) in 50 nL H2O was injected into Xenopus laevis oocytes extracted from anesthetized frogs. Currents were recorded at 25 °C from inside-out patches excised from oocytes 1 to 5 d after RNA injection. The pipette solution contained 15 mM KCl, 135 mM NaCl, 2 mM MgCl2, and 10 mM HEPES (pH = 7.4 with KOH) and the bath solution contained 150 mM KCl and 10 mM HEPES (pH = 7.1 with KOH). Borosilicate glass pipettes were pulled to 2–5 MΩ resistance.
Patches were evaluated with voltage-step protocols to confirm TRAAK expression and minimal non-specific leak based on reversal potential. Currents were recorded using an Axopatch 200B amplifier (Molecular Devices) at a bandwidth of 1 kHz and digitized with an Digidata 1550B (Molecular Devices) at 100–500 kHz using pClamp10.7 software. Pressure was applied with a second-generation high-speed pressure clamp device (HSPC-2-SB, ALA Scientific Instruments). Aggregated data were from patches from n ≥ 2 different cells on different days. No relevant differences were observed between patches from different cells. In an effort to minimize variability associated with differences in resting membrane tension, we targeted patches with low basal curvature and low resting channel activity and ensured measured pressure difference across the patch was as close to zero as possible at rest to prevent mechanical activation of channels. Data were analyzed using Clampfit 10.7, Excel, and Graphpad Prism software. For voltage families, the data were decimated 100x and plotted in Prism. […]
To avoid cannabinoid absorption to plastic, cannabinoid solutions were made in glass vials and diluted by weight, perfusion was performed using glass tubing pulled from borosilicate glass Pasteur pipettes (Fisherbrand, Cat# 13–678-20C), and recordings were performed in glass chambers. Channel activity was continuously recorded during perfusion steps. […]
The effects of cannabinoids on channel activity were quantified by the reduction in channel current evoked at 0 mV during a gap-free recording or during 200 ms long voltage families with steps ranging from −100 to +100 mV. […]

C=C(C)[C@@H]1CCC(C)=C[C@H]1c1c(O)cc(CCCCC)cc1O [CBD, Cannabidiol]
IC50 [1]: 2000 to 10000 nM | IC50 [2]: 156 ± 8 nM | EC50 [3]: 1030 ± 220 nM | IC50 [3]: 1030 ± 220 nM | fold less sensitive than wild-type TRAAK ([3]; G158D vs wild-type): ~ 7.1 fold | inhibition at 10 µM ([3]; highest CBD concentration tested, 10 μM, read-out: inhibition plateauing at % of initial current): ~45%
